From PMC12006171, “Marsupial cathelicidins: characterization, antimicrobial activity and evolution in this unique mammalian lineage” (Frontiers in Immunology, 2025)
≈ marks a conversion by molar mass, not a printed value. Read-outs that look alike come from different tables or passages of the source. Where a SMILES comes first, the peptide text is derived from it. Where no end group is shown, it is not given here.

Legend:
Experiment in all cases: microbe, parasite or virus in culture
Assay type in all cases: cell-based
[1] = tested on: Escherichia coli ATCC 25922
Summary of the method: (§1)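 MIC read visually as the lowest peptide concentration with no growth versus negative control, after 20–24 h at 35°C. Peptides were tested in duplicate 64-0.125μg/mL (final) in MHB or cation-supplemented MH II B, some with 10% lysed horse blood; inoculum 5 x 10^5 CFU/mL.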

[2] = tested on: Escherichia coli clinical isolate - animal
Summary of the method: as §1

[3] = tested on: Pseudomonas aeruginosa ATCC 27853; conditions: ATCC 27853; for MIC: read-out: MIC P. aeruginosa ATCC
Summary of the method: as §1

[4] = tested on: Pseudomonas aeruginosa clinical isolate - animal; conditions: clinical isolate - animal
Summary of the method: as §1

[5] = tested on: Staphylococcus aureus ATCC 29213
Summary of the method: as §1

[6] = tested on: Staphylococcus aureus clinical isolate - animal
Summary of the method: as §1

[7] = tested on: Streptococcus agalactiae ATCC 12386; conditions: for MIC: read-out: MIC S. agalactiae ATCC
Method: (§2) Antimicrobial testing of 78 cathelicidin MPs was performed in two phases as outlined in Figure 1 . In phase I, 40 peptides (27 extant and 13 ancestral) were selected for testing based on rank (outlined above) and similarity to published marsupial cathelicidins with known antimicrobial activity ([33], [41]–[43]). These peptides were tested against nine bacteria (Staphylococcus aureus ATCC 29213 and clinical isolate, Escherichia coli ATCC 25922 and clinical isolate, Pseudomonas aeruginosa ATCC 27853 and clinical isolate, Streptococcus agalactiae ATCC 12386 and clinical isolate, Streptococcus pneumoniae ATCC 49619) and three fungi (Candida krusei ATCC 6258, Candida parapsilosis ATCC 22019, and Candida albicans clinical isolate). Details regarding these strains are available in Supplementary Table 4 . The antimicrobial activity of cathelicidins was determined as the minimum inhibitory concentration (MIC), which was the lowest concentration of cathelicidin that prevented visible bacterial or fungal growth, relative to the negative control. […] Minimum bactericidal concentration (MBC) and/or minimum fungicidal concentration (MFC) was conducted to determine microbicidal versus static action. Activity against S. aureus ATCC, E. coli ATCC, and Pseudomonas aeruginosa ATCC 27853 was examined in the presence of divalent cations to determine the impact of inhibitors.
(§3) Antimicrobial activity was determined using a broth microdilution susceptibility assay in 96 well polypropylene plates according to Clinical Laboratory Standards Institute guidelines M07-A and M26A as described previously ([33], [42], [43]). The bacterial and fungal isolates from humans and animals used in this study are outlined in Supplementary Table 4 . Only yeasts were included in the panel of fungi as they have been used in the susceptibility testing of eutherian ([3], [81]–[83]) and other marsupial cathelicidins previously ([33], [42], [43]). Cathelicidin mature peptides were solubilized in DMSO and serially diluted in duplicate from 128-0.25μg/mL in a final volume of 100µL. For bacteria, cathelicidins were diluted in Mueller Hinton Broth (MHB) with or without 10% lysed horse blood, and with (MH II B) or without (MHB) calcium and magnesium cations. For fungi, cathelicidins were diluted in Roswell Park Memorial Institute medium (RPMI)-1640 MOPS. Ampicillin or tetracycline were included as a positive control for Gram-positive and -negative bacteria respectively, while amphotericin B was used for fungi. A media-only negative control and growth control (no cathelicidin) were also included on each plate. Bacteria were sub-cultured on Muller Hinton agar (MHA) or sheep blood agar (BA), and fungi on Sabouraud dextrose agar (SAB), 20–24 hours prior to the test. Colonies were suspended in saline, the concentration adjusted to a 0.5 McFarland standard, and then diluted in media to a concentration of 1.0 x 10^6 cells/mL. Then, 100μL was added to each well of the cathelicidin dilution plate, giving a final inoculum density of 5 x 10^5 CFU/mL and cathelicidin concentration of 64-0.125μg/mL. Colony counts were performed on MHA/BA/SAB to confirm inoculum density. All plates were incubated at 35°C for 20–24 hours, depending on the strain.
(§4) Colonies were counted and compared to the colony count of the starting inoculum.

[8] = tested on: Streptococcus agalactiae Clinical isolate - animal; conditions: for MIC: read-out: MIC S. agalactiae
Method: as §2, §3, §4

[9] = tested on: Streptococcus pneumoniae ATCC 49619; conditions: for MIC: read-out: MIC S. pneumoniae ATCC
Method: as §2, §3, §4

[10] = ATCC 25922, read-out: MIC E. coli ATCC
[11] = ATCC 25922, read-out: MIC in the presence of cations E. coli ATCC
[12] = ATCC 29213, read-out: MIC S. aureus ATCC
[13] = clinical isolate - animal, read-out: MIC S. aureus

| Molecule | MBC E. coli ATCC ([1]; ATCC 25922) [µM] | MIC [1, 10] [µM] | MIC [1, 11] [µM] | MBC E. coli ([2]; clinical isolate - animal) | MIC in the presence of cations E. coli ([2]; clinical isolate - animal) | MIC [3] [µM] | MIC ([4]; read-out: MIC P. aeruginosa) [µM] | MIC [5, 12] [µM] | MIC [6, 13] [µM] | MIC ([7]; ATCC 12386) [µM] | MIC ([8]; clinical isolate - animal) [µM] | MIC ([9]; ATCC 49619) [µM] | MIC E. coli ([2]; clinical isolate - animal) | other results |
| --- | --- | --- | --- | --- | --- | --- | --- | --- | --- | --- | --- | --- | --- | --- |
| KVKRGLWDSVKKKVSKFRNSIRRRVTSFKIGAADIRKGYSVA [BepeCath7] | 13.2 | 6.6 | 6.6 | 13.2 µM | 6.6 µM | >13.2 | >13.2 | >13.2 | >13.2 | >13.2 | >13.2 | >13.2 |  | MIC ([2]; clinical isolate - animal): 6.6 µM |
| CC[C@H](C)[C@H](NC(=O)[C@H](C)NC(=O)[C@H](CC(N)=O)NC(=O)[C@H](CCCCN)NC(=O)[C@H](CC(C)C)NC(=O)[C@@H](NC(=O)[C@H](CC(N)=O)NC(=O)[C@H](CCCCN)NC(=O)[C@@H](NC(=O)[C@H](CCCCN)NC(=O)[C@H](CC(=O)O)NC(=O)CNC(=O)[C@H](C)NC(=O)[C@H](CCCCN)NC(=O)[C@H](CCCCN)NC(=O)[C@H](CC(C)C)NC(=O)[C@H](CC(C)C)NC(=O)[C@H](CC(N)=O)NC(=O)[C@H](CCCCN)NC(=O)[C@H](Cc1ccccc1)NC(=O)[C@H](CCCCN)NC(=O)[C@H](CCC(=O)O)NC(=O)[C@H](Cc1ccccc1)NC(=O)[C@@H](NC(=O)[C@H](CCCNC(=N)N)NC(=O)[C@H](CC(C)C)NC(=O)[C@H](CCCNC(=N)N)NC(=O)[C@@H](N)CCCCN)[C@@H](C)CC)[C@@H](C)CC)[C@@H](C)O)C(=O)N[C@@H](CC(N)=O)C(=O)NCC(=O)N[C@@H](CC(C)C)C(=O)N[C@@H](CC(C)C)C(=O)N[C@@H](CO)C(=O)N1CCC[C@H]1C(=O)N[C@H](C(=O)NCC(=O)N[C@@H](CCCNC(=N)N)C(=O)O)[C@@H](C)CC [MAP7] (H-KRLRIFEKFKNLLKKAGDKIKNTLKNAINGLLSPIGR-OH) | 3.7 (≈ 15.7 µg/mL) | 1.8 | 1.8 | 3.7 (3.7)^3.7 µM | 3.7 (3.7)^3.7 µM |  | 7.5 (≈ 31.8 µg/mL) | >15.1 | >15.1 |  |  |  | 3.7 (3.7)^3.7 µM | MBC P. aeruginosa ATCC [3]: 7.5 (7.5)^7.5 µM; MIC P. aeruginosa ATCC [3]: 7.5 (7.5)^7.5 µM; MIC in the presence of cations P. aeruginosa ATCC [3]: 7.5 (7.5)^7.5 µM; MBC P. aeruginosa [4]: 64 µg/mL (≈ 15.1 µM); MIC ([4]; read-out: MIC in the presence of cations P. aeruginosa): 7.5 µM; MBC S. agalactiae ATCC ([7]; ATCC 12386): 15.1 µM (≈ 64 µg/mL); MIC S. agalactiae ATCC ([7]; ATCC 12386): 15.1 µM (≈ 64 µg/mL); MBC S. agalactiae ([8]; clinical isolate - animal): 15.1 µM (≈ 64 µg/mL); MIC S. agalactiae ([8]; clinical isolate - animal): 15.1 µM (≈ 64 µg/mL); MBC S. pneumoniae ATCC ([9]; ATCC 49619): 7.5 µM (≈ 31.8 µg/mL); MIC S. pneumoniae ATCC ([9]; ATCC 49619): 7.5 µM (≈ 31.8 µg/mL) |
| CC[C@H](C)[C@H](NC(=O)[C@H](C)NC(=O)[C@H](CC(N)=O)NC(=O)[C@H](CCCCN)NC(=O)[C@H](Cc1ccccc1)NC(=O)[C@@H](NC(=O)[C@H](CC(=O)O)NC(=O)[C@H](CCCCN)NC(=O)[C@@H](NC(=O)[C@H](CCCCN)NC(=O)[C@H](CC(=O)O)NC(=O)[C@H](CO)NC(=O)[C@H](C)NC(=O)[C@H](CCCCN)NC(=O)[C@H](CCCCN)NC(=O)[C@H](CC(C)C)NC(=O)[C@H](CC(C)C)NC(=O)[C@H](CC(N)=O)NC(=O)[C@H](CCCCN)NC(=O)[C@@H](NC(=O)[C@H](CCCCN)NC(=O)[C@H](CCC(=O)O)NC(=O)[C@@H](NC(=O)[C@@H](NC(=O)[C@H](CCCNC(=N)N)NC(=O)[C@H](CC(C)C)NC(=O)[C@H](CCCNC(=N)N)NC(=O)[C@H](CCCCN)NC(=O)[C@@H](N)C(C)C)[C@@H](C)CC)C(C)C)[C@@H](C)CC)[C@@H](C)CC)[C@@H](C)O)C(=O)N[C@@H](CC(N)=O)C(=O)N[C@@H](CO)C(=O)N[C@@H](CC(C)C)C(=O)N[C@@H](CC(C)C)C(=O)N[C@@H](CO)C(=O)O [MacroCath7] (H-VKRLRIVEKIKNLLKKASDKIKDTFKNAINSLLS-OH) | 16.3 (≈ 64 µg/mL) | 8.1 | 8.1 | 16.3 (16.3)^16.3 µM | 16.3 (16.3)^16.3 µM | >16.3 | >16.3 | >16.3 | >16.3 | >16.3 | >16.3 | >16.3 | 16.3 (16.3)^16.3 µM |  |
| CC1(C)S[C@@H]2[C@H](NC(=O)[C@H](N)c3ccccc3)C(=O)N2[C@H]1C(=O)O [Ampicillin, reference compound] |  |  |  |  |  |  |  |  |  |  |  |  |  | MIC ([1]; Escherichia coli, ATCC25922, MHB without cations, 5 x 10^5 CFU/mL, 35°C 20–24 hours, duplicate, read-out: MIC E. coli ATCC): 4 µg/mL; MIC ([1]; Escherichia coli, ATCC25922, superscript value, cation-adjusted Mueller Hinton broth, read-out: MIC in the presence of cations E. coli ATCC): 8 µg/mL; MIC ([1]; Escherichia coli, ATCC25922, superscript value, cation-adjusted Mueller Hinton broth, µM equivalent, read-out: MIC in the presence of cations E. coli ATCC): 22.8 µM; MIC ([1]; Escherichia coli, ATCC25922, µM equivalent of Table 3, read-out: MIC E. coli ATCC): 11.4 µM; MIC ([2]; Escherichia coli, clinical isolate, MHB without cations, 5 x 10^5 CFU/mL, 35°C 20–24 hours, duplicate): > 64 µg/mL; MIC ([2]; Escherichia coli, clinical isolate, µM equivalent of Table 3): > 183 µM; MIC ([5]; Staphylococcus aureus, ATCC29213, MHB without cations, 5 x 10^5 CFU/mL, 35°C 20–24 hours, duplicate, 64-0.125μg/mL, read-out: MIC S. aureus ATCC): 1 µg/mL; MIC ([5]; Staphylococcus aureus, ATCC29213, superscript value, cation-adjusted Mueller Hinton broth (calcium and magnesium), read-out: MIC in the presence of cations S. aureus ATCC): 2 µg/mL; MIC ([5]; Staphylococcus aureus, ATCC29213, superscript value, cation-adjusted Mueller Hinton broth, µM equivalent of Table 3, read-out: MIC in the presence of cations S. aureus ATCC): 5.7 µM; MIC ([5]; Staphylococcus aureus, ATCC29213, µM equivalent of Table 3, read-out: MIC S. aureus ATCC): 2.8 µM; MIC ([6]; Staphylococcus aureus, clinical isolate, MHB without cations, 5 x 10^5 CFU/mL, 35°C 20–24 hours, duplicate, read-out: MIC S. aureus): 0.25 µg/mL; MIC ([6]; Staphylococcus aureus, clinical isolate, superscript value, cation-adjusted Mueller Hinton broth, read-out: MIC in the presence of cations S. aureus): 0.25 µg/mL; MIC ([6]; Staphylococcus aureus, clinical isolate, superscript value, cation-adjusted Mueller Hinton broth, µM equivalent, read-out: MIC in the presence of cations S. aureus): 0.7 µM; MIC ([6]; Staphylococcus aureus, clinical isolate, µM equivalent of Table 3, read-out: MIC S. aureus): 0.7 µM; MIC ([7]; Streptococcus agalactiae, ATCC12386, phase I peptides only, 5 x 10^5 CFU/mL, 35°C 20–24 hours, duplicate): 0.25 µg/mL; MIC ([7]; Streptococcus agalactiae, ATCC12386, µM equivalent of Table 3): 0.7 µM; MIC ([8]; Streptococcus agalactiae, clinical isolate, phase I peptides only, 5 x 10^5 CFU/mL, 35°C 20–24 hours, duplicate): 0.25 µg/mL; MIC ([8]; Streptococcus agalactiae, clinical isolate, µM equivalent of Table 3): 0.7 µM; MIC ([9]; Streptococcus pneumoniae, ATCC49619, phase I peptides only, 5 x 10^5 CFU/mL, 35°C 20–24 hours, duplicate): > 64 µg/mL; MIC ([9]; Streptococcus pneumoniae, ATCC49619, µM equivalent of Table 3): > 183 µM |
